In patent publication US8735414B2 (priority 2009, dated 2014) one finds melting point and IC50 data, which are given here for 27 compounds.

For series [1], the system named is bicistronic HCV replicon (replicon RNA, GenBank Accession No. AJ242654). Kind of series: HCV Replicon Assay. The class given is cell-based. To be noted: Hepatitis C virus, 72 h, read-out: Replicon IC50.

SMILES strings stand for the structures.

Compound `N#Cc1c(-c2ccc(S(=O)(=O)NC(CF)CF)cn2)n(-c2ccccc2)c2cc(OC(F)F)ccc12` [compound 226, 6-[3-cyano-6-(difluoromethoxy)-1-phenyl-1H-indol-2-yl]-N-(1,3-difluoropropan-2-yl)pyridine-3-sulfonamide] came in with a melting point of 200 to 202 °C. Besides, the IC50 in series [1] was below 500 nM.
For `CC(C)NS(=O)(=O)c1ccc(-c2c(C#N)c3ccc(OC(F)(F)F)cc3n2C(C)C)nc1` [compound 12, 6-[3-cyano-1-(propan-2-yl)-6-(trifluoromethoxy)-1H-indol-2-yl]-N-(propan-2-yl)pyridine-3-sulfonamide] the same measures were 160 to 162 °C and 500 to 2000 nM.
For `Cc1ccc2c(c1)c(C#N)c(-c1ncc(S(=O)(=O)N[C@@H](C)C(F)(F)F)cn1)n2C1CCCCC1` [compound 390, 2-(3-cyano-1-cyclohexyl-5-methyl-1H-indol-2-yl)-N-[(2S)-1,1,1-trifluoropropan-2-yl]pyrimidine-5-sulfonamide] the same measures were 218 to 223 °C and 500 to 2000 nM.
For `Cc1cc2c(C#N)c(-c3ccc(S(=O)(=O)NC(CF)CF)cn3)n(C3CCC3)c2cc1F` [compound 493, 6-(3-cyano-1-cyclobutyl-6-fluoro-5-methyl-1H-indol-2-yl)-N-(1,3-difluoropropan-2-yl)pyridine-3-sulfonamide] the same measures were 209 to 213 °C and below 500 nM.
In turn, `Cc1cc2c(cc1F)c(C#N)c(-c1ccc(S(=O)(=O)N[C@@H](C)C(F)(F)F)cn1)n2-c1cncc(F)c1` [compound 945, 6-[3-cyano-5-fluoro-1-(5-fluoropyridin-3-yl)-6-methyl-1H-indol-2-yl]-N-[(2S)-1,1,1-trifluoropropan-2-yl]pyridine-3-sulfonamide] yielded a melting point of 199 to 204 °C. Also, the IC50 in series [1] was below 500 nM.
The matching figures for `Cc1cc(-c2c(C#N)c3cc(F)c(OC(F)F)cc3n2C2CCC2)ncc1S(=O)(=O)N[C@@H](C)C(F)(F)F` [compound 822, 6-[3-cyano-1-cyclobutyl-6-(difluoromethoxy)-5-fluoro-1H-indol-2-yl]-4-methyl-N-[(2S)-1,1,1-trifluoropropan-2-yl]pyridine-3-sulfonamide]: 204 to 210 °C and below 500 nM.
For the compound `Cc1cc2cc(-c3ccc(S(=O)(=O)N[C@@H](C)C(F)(F)F)cn3)n(C3CCC3)c2cc1OC(F)F` [compound 646, 6-[1-cyclobutyl-6-(difluoromethoxy)-5-methyl-1H-indol-2-yl]-N-[(2S)-1,1,1-trifluoropropan-2-yl]pyridine-3-sulfonamide], the melting point lay within 151 to 153 °C. The 50% inhibitory concentration (IC50) in series [1] was 2000 to 5000 nM.
For `Cc1cc2c(cc1F)c(C(N)=O)c(-c1ccc(S(=O)(=O)N[C@@H](C)C(F)(F)F)cn1)n2-c1cccc(F)n1` [compound 877, 5-fluoro-1-(6-fluoropyridin-2-yl)-6-methyl-2-(5-{[(2S)-1,1,1-trifluoropropan-2-yl]sulfamoyl}pyridin-2-yl)-1H-indole-3-carboxamide] the same measures were 210 to 214 °C and below 500 nM.
`Cc1ccc2c(C#N)c(-c3ccc(S(=O)(=O)NC(CF)CF)cn3)n(C3CCCCC3)c2c1` [compound 513, 6-(3-cyano-1-cyclohexyl-6-methyl-1H-indol-2-yl)-N-(1,3-difluoropropan-2-yl)pyridine-3-sulfonamide] showed a melting point of 195 to 203 °C. In addition, in series [1], the IC50 was below 500 nM.
For `CCc1cc2c(cc1F)c(C#N)c(-c1ccc(S(=O)(=O)N[C@@H](C)C(F)(F)F)cn1)n2-c1ncccc1Cl` [compound 965, 6-[1-(3-chloropyridin-2-yl)-3-cyano-6-ethyl-5-fluoro-1H-indol-2-yl]-N-[(2S)-1,1,1-trifluoropropan-2-yl]pyridine-3-sulfonamide] the same measures were 200 to 208 °C and below 500 nM.
`Cc1ccc2c(c1)c(C#N)c(-c1ccc(S(=O)(=O)N[C@@H](C)C3CC3)cn1)n2C1CCC1` [compound 201, 6-(3-cyano-1-cyclobutyl-5-methyl-1H-indol-2-yl)-N-[(1S)-1-cyclopropylethyl]pyridine-3-sulfonamide] came in with a melting point of 173 to 178 °C. Besides, the IC50 in series [1] is below 500 nM.
In turn, `CC(C)NS(=O)(=O)c1cnc(-c2c(C#N)c3ccc(Cl)cc3n2C2CCC2)nc1` [compound 115, 2-(6-chloro-3-cyano-1-cyclobutyl-1H-indol-2-yl)-N-(propan-2-yl)pyrimidine-5-sulfonamide] yielded a melting point of 228 to 229 °C. The IC50 in series [1] was below 500 nM.
For `CC(NS(=O)(=O)c1ccc(-c2c(C#N)c3ccc(C4CC4)cc3n2C2CCCC2)nc1)C(F)(F)F` (stereo not drawn) [compound 86, 6-(3-cyano-1-cyclopentyl-6-cyclopropyl-1H-indol-2-yl)-N-(1,1,1-trifluoropropan-2-yl)pyridine-3-sulfonamide] the same measures were 166 to 170 °C and below 500 nM.
The matching figures for `Cc1ccc2c(C#N)c(-c3ccc(S(=O)(=O)N[C@@H](C)C(F)(F)F)cn3)n(C3CCCC3)c2c1F` [compound 424, 6-(3-cyano-1-cyclopentyl-7-fluoro-6-methyl-1H-indol-2-yl)-N-[(2S)-1,1,1-trifluoropropan-2-yl]pyridine-3-sulfonamide]: 191 to 195 °C and below 500 nM.
The matching figures for `CC(C)NS(=O)(=O)c1ccc(-c2c(C#N)c3cccc(F)c3n2C2CCCC2)nc1` [compound 66, 6-(3-cyano-1-cyclopentyl-7-fluoro-1H-indol-2-yl)-N-(propan-2-yl)pyridine-3-sulfonamide]: 152 to 153 °C and below 500 nM.
`N#Cc1c(-c2ccc(S(=O)(=O)NC(CF)CF)cn2)n(CC2CC2)c2cc(F)ccc12` [compound 57, 6-[3-cyano-1-(cyclopropylmethyl)-6-fluoro-1H-indol-2-yl]-N-(1,3-difluoropropan-2-yl)pyridine-3-sulfonamide] had a melting point of 188 to 190 °C. Moreover, the IC50 in series [1] was below 500 nM.
For `CC(C)c1ccc2c(C#N)c(-c3ccc(S(=O)(=O)NC(CF)CF)cn3)n(C3CCCC3)c2c1` [compound 457, 6-[3-cyano-1-cyclopentyl-6-(propan-2-yl)-1H-indol-2-yl]-N-(1,3-difluoropropan-2-yl)pyridine-3-sulfonamide] the same measures were 163 to 172 °C and below 500 nM.
For `Cc1ccc2c(c1)c(C#N)c(-c1ccc(S(=O)(=O)N[C@H](C)C(F)(F)F)cn1)n2C(C)C` [compound 485, 6-[3-cyano-5-methyl-1-(propan-2-yl)-1H-indol-2-yl]-N-[(2R)-1,1,1-trifluoropropan-2-yl]pyridine-3-sulfonamide] the same measures were 167 to 173 °C and below 500 nM.
For `N#Cc1c(-c2ccc(S(=O)(=O)NC(CF)CF)cn2)n(C2CCC2)c2cc(OC(F)F)c(F)cc12` [compound 542, 6-[3-cyano-1-cyclobutyl-6-(difluoromethoxy)-5-fluoro-1H-indol-2-yl]-N-(1,3-difluoropropan-2-yl)pyridine-3-sulfonamide] the same measures were 160 to 164 °C and below 500 nM.
For `COc1ccc2c(C#N)c(-c3ncc(S(=O)(=O)N[C@@H](C)C4CC4)cn3)n(C3CCCC3)c2c1` [compound 206, 2-(3-cyano-1-cyclopentyl-6-methoxy-1H-indol-2-yl)-N-[(1S)-1-cyclopropylethyl]pyrimidine-5-sulfonamide], the melting point fell in the range of 192 to 194 °C. Further, the half-inhibitory concentration (IC50) in series [1] was in the range of 500 to 2000 nM.
For `CCc1cc2c(cc1F)c(C#N)c(-c1ccc(S(=O)(=O)N[C@@H](C)C(F)(F)F)cn1)n2-c1ccnc(C)n1` [compound 943, 6-[3-cyano-6-ethyl-5-fluoro-1-(2-methylpyrimidin-4-yl)-1H-indol-2-yl]-N-[(2S)-1,1,1-trifluoropropan-2-yl]pyridine-3-sulfonamide] the same measures were 138 to 146 °C and 500 to 2000 nM.
For `C[C@@H](NS(=O)(=O)c1ccc(-c2c(C#N)c3ccc(C(F)F)cc3n2C2CCC2)nc1)C(F)(F)F` [compound 334, 6-[3-cyano-1-cyclobutyl-6-(difluoromethyl)-1H-indol-2-yl]-N-[(2R)-1,1,1-trifluoropropan-2-yl]pyridine-3-sulfonamide] the same measures were 200 to 206 °C and below 500 nM.
For `C[C@H](NS(=O)(=O)c1cnc(-c2c(C#N)c3ccc(Cl)cc3n2-c2ccccn2)nc1)C(F)(F)F` [compound 449] the same measures were 163 to 166 °C and below 500 nM.
The compound `Cc1ccc2c(c1)c(C#N)c(-c1ncc(S(=O)(=O)NC(C)C)cn1)n2C1CCCC1` [compound 159, 2-(3-cyano-1-cyclopentyl-5-methyl-1H-indol-2-yl)-N-(propan-2-yl)pyrimidine-5-sulfonamide] gave a melting point of 193 to 198 °C. Besides, the IC50 in series [1] is below 500 nM.
The matching figures for `CC(C)n1c(-c2ccc(S(=O)(=O)N[C@@H](C)C(F)(F)F)cn2)c(C(N)=O)c2c(F)cc(OC(F)F)cc21` [compound 839, 6-(difluoromethoxy)-4-fluoro-1-(propan-2-yl)-2-(5-{[(2S)-1,1,1-trifluoropropan-2-yl]sulfamoyl}pyridin-2-yl)-1H-indole-3-carboxamide]: 197 to 198 °C and below 500 nM.
The matching figures for `N#Cc1c(-c2ncc(S(=O)(=O)NC(CF)CF)cn2)n(C2CCCCC2)c2cc(OC(F)F)ccc12` [compound 179, 2-[3-cyano-1-cyclohexyl-6-(difluoromethoxy)-1H-indol-2-yl]-N-(1,3-difluoropropan-2-yl)pyrimidine-5-sulfonamide]: 174 to 176 °C and below 500 nM.
For `CC1(NS(=O)(=O)c2ccc(-c3c(C#N)c4cc(Cl)c(OC(F)F)cc4n3C3CCC3)nc2)CC1` [compound 658, 6-[5-chloro-3-cyano-1-cyclobutyl-6-(difluoromethoxy)-1H-indol-2-yl]-N-(1-methylcyclopropyl)pyridine-3-sulfonamide] the same measures were 218 to 226 °C and below 500 nM.
